The term Ki denotes a measure of affinity in units of concentration, obtained from inhibition or displacement.

human Factor Xa, sequence (P00742 235-488 limits assumed): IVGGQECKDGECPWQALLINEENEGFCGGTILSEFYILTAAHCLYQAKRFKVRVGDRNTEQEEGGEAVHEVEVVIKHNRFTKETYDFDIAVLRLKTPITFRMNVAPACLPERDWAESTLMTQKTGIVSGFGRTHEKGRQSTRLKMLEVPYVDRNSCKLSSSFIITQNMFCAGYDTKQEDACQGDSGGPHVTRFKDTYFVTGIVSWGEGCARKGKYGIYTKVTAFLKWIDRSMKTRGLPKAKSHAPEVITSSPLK
human Factor Xa, sequence (P00742 41-179 partner limits assumed): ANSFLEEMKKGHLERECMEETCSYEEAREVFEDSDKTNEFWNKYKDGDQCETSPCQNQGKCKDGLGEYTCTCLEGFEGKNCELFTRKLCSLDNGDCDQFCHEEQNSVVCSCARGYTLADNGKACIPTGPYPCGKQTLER

The target in the assay is human Factor Xa (Homo sapiens, UniProt P00742). Description: In vitro assay for inhibition of Factor Xa (1), chromogenic assay. The assay is classed as biochemical. The following applies: substrate N-α-benzyloxycarbonyl-D-Arg-Gly-Arg-p-nitroanilide 200 μM, Ki calculated from IC50. As for the experimental part:
• 1. Klimkowski, Valentine Joseph; Kyle, Jeffrey Alan; Masters, John Joseph; Wiley, Michael Robert. PCT Int. Appl. (2000), WO 0039092. In Vitro Assay for Inhibition of Factor Xa (1)
Compounds were diluted from a 10 mM stock solution in dimethylsulfoxide at appropriate concentrations. Assay was performed at room temperature using buffer consisting of: 50 mM Tris-HCl, 150 mM NaCl, 5 mM CaCl2, pH 7.4. containing human Factor Xa (final conc. of 0.0015 U,ml^−1). Compound and enzyme were preincubated for 15 min prior to addition of the substrate (final conc. of 200 μM). The reaction was stopped after 30 min with the addition of soybean trypsin inhibitor or H-D-PHE-PRO-ARG-Chloromethylketone. BioTek EL340 or Tecan Spectrafluoro Plus plate readers were used to monitor the absorbance at 405 nm. To obtain IC50 values the data were analysed using ActivityBase® and XLfit®.
Calculation of Ki values:
Ki=IC50/(1+[Substrate]/Km)
The Ki value for the above assay can be obtained by dividing the IC50 value by 1.6.
Take `CS(=O)(=O)c1ccccc1-c1ccc(N2CC[C@H](NS(=O)(=O)c3cc4cc(Cl)ccc4o3)C2=O)nc1` [Example 23, 5-Chloro-N-((3S)-1-{5-[2-(methylsulfonyl)phenyl]pyridin-2-yl}-2-oxopyrrolidin-3-yl)-1-benzofuran-2-sulfonamide]: the Ki was less than 1000 nM. As for `Cc1ccc(-c2ccc(N3CC[C@H](NS(=O)(=O)c4ccc5cc(Cl)ccc5c4)C3=O)c(F)c2)o1` [Example 73, 6-Chloro-N-{(3S)-1-[2-fluoro-4-(5-methyl-2-furyl)phenyl]-2-oxopyrrolidin-3-yl}naphthalene-2-sulfonamide], the Ki is less than 1000 nM. The value for `O=C1[C@@H](NS(=O)(=O)c2ccc3cc(Cl)ccc3c2)CCN1c1ccc(-c2ccncc2Cl)cc1F` [Example 83, 6-chloro-N-{(3S)-1-[4-(3-Chloropyridin-4-yl)-2-fluorophenyl]-2-oxopyrrolidin-3-yl}naphthalene-2-sulfonamide] was less than 10 nM; that for `Cn1cncc1-c1ccc(N2CC[C@H](NS(=O)(=O)c3ccc4cc(Cl)ccc4c3)C2=O)c(F)c1` [Example 85, 6-Chloro-N-{(3S)-1-[2-fluoro-4-(1-methyl-1H-imidazol-5-yl)phenyl]-2-oxopyrrolidin-3-yl}naphthalene-2-sulfonamide] was less than 10 nM; that for `O=C1[C@@H](NS(=O)(=O)c2ccc3cc(Cl)ccc3c2)CCN1c1ccc(I)cc1F` [Example 89, 6-Chloro-N-[(3S)-1-(2-fluoro-4-iodophenyl)-2-oxopyrrolidin-3-yl]naphthalene-2-sulfonamide] was less than 200 nM. Consider `O=C1[C@@H](NS(=O)(=O)/C=C/c2ccc(Cl)s2)CCN1c1ccc(I)cn1` [Example 90, (E)-2-(5-Chlorothien-2-yl)-N-[(3S)-1-(5-iodopyridin-2yl)oxopyrrolidin-3-yl]ethenesulfonamide], for which the Ki is less than 1000 nM. As for `CC(C)(C)c1ccc(N2CC[C@H](NS(=O)(=O)c3ccc4cc(Cl)ccc4c3)C2=O)cc1` [Example 125, N-[(3S)-1-(4-tert-butylphenyl)-2-oxopyrrolidinyl]-6-chloro-2-naphthalenesulfonamide], the Ki was less than 200 nM.
